Where “and” joins values, the source holds several entries; their conditions need not be identical. Equal values may be shown once.
Test system: 598228-144-R-J1-PDC complex spheroid viability
Assay: Anticancer human tumor 598228-144-R-J1-PDC patient-derived serous endometrial adenocarcinoma cell line growth inhibition [GQUAD]
Conditions: for IC50: curve of first compound; for viability, T/C: stronger effect = lower value
Source text: DNA G-quadruplex Stabilizer Agents in Combinations in Complex Spheroids
A high-throughput screen of multi-cell type tumor spheroids was designed to identify active combinations of DNA G-quadruplex stabilizer agents and targeted small molecules. Complex spheroids include a stromal component modeled by human endothelial cells (HUVEC) and fibroblasts modeled by human mesenchymal stem cells (MSCs). The concentration ranges selected for each drug and investigational agent were based upon clinically achievable concentrations if the clinical Cmax of the agent was known.
Compounds. The drugs and investigational agents: pidnarulex (CX-5461; NSC782164), APTO-253 (NSC789042), BRACO-19 (NSC847499), peposertib (NSC802822), ceralasertib (NSC780249), elimusertib (NSC800525), camonsertib (NSC841442), AZD-1390 (NSC803789), olaparib (NSC753686), talazoparib (NSC767125), ART-558 (NSC835418), sotorasib (NSC818433), MRTX-1133 (NSC836407), SN-38 (NSC673596), topotecan (NSC609699), etoposide (NSC141540), doxorubicin (NSC123127), gemcitabine (NSC613327), 5-fluorouracil (NSC19893), paclitaxel (NSC125973), vemurafenib (NSC761431), panobinostat (NSC761190), R-306465 (JNJ-16241199; NSC773264), adavosertib (NSC754352), TP-3654 (NSC805149), carboplatin (NSC241240), KSQ-4279 (NSC840948), and staurosporine (NSC755774) were obtained from the National Cancer Institute (NCI) Developmental Therapeutics Program Chemical Repository (34). The FDA-approved anticancer drug set is available from the NCI Developmental Therapeutics Program. […] The stock solutions were prepared in dimethyl sulfoxide (DMSO, Sigma-Aldrich, St. Louis, MO, cat. D2650) at 800-fold the tested concentration and stored at -70 degrees C prior to their use. All drugs and investigational agents were tested over a range starting from a high concentration at or near the clinical Cmax and decreasing in half-log increments. If the clinical Cmax for an agent had not been determined, the highest concentration tested was 10 microM.
2.3 Cell Culture. All cells were maintained in an incubator at 37 degrees C and 5% CO2 with 95% humidity. The PDC lines were cultured according to standard operating procedures established by the NCI PDMR. All PDCs were thawed and cultured in Matrigel-coated flasks prepared with a working solution of 1X Ham's F-12 nutrient mix, without supplementation (Invitrogen, cat. 11765054), 100 U/mL penicillin-streptomycin (Invitrogen, cat. 15140122), and 2.5% Matrigel (Corning Inc., cat. 354248) for the first three passages. The 857933-349-R-J2-PDC line was cultured in 6C/Colon 1B media, which includes advanced DMEM/F-12 (Thermo Fisher Scientific, cat. 12634028), 10 mM HEPES (Thermo Fisher Scientific, cat. 15630080), 1X GlutaMAX supplement (Thermo Fisher Scientific, cat. 35050061), 0.1 mg/mL primocin (InvivoGen, cat. ant-pm-2), 10% defined fetal bovine serum, heat inactivated (HyClone Laboratories Inc., cat. SH30070.03HI), 50% L-WRN conditioned media (ATCC, cat. CRL-3276), 1.25 mM N-Acetyl-L-cysteine (Sigma-Aldrich, cat. A9165), 10 mM nicotinamide (Sigma-Aldrich, cat. N0636), 1X B-27 supplement (Thermo Fisher Scientific, cat. 17504044), 1X N-2 supplement (Thermo Fisher Scientific, cat. 17502048), 10 microM Y-27632 dihydrochloride (Tocris Bioscience, cat. 1254), and 50 ng/mL human EGF recombinant protein (Thermo Fisher Scientific, cat. PHG0311). The 485176-168-R4-J1-PDC line was cultured in Panc media, which includes all 6C/Colon 1B media components plus 100 ng/mL human FGF-10 (Thermo Fisher Scientific, cat. 100-26), 500 nM SB-431542 (Selleckchem, cat. S1067), and gastrin (Tocris, cat. 3006).
[…]

[1] = second compound 0.0316 µM, first compound 0.0316 µM
[2] = second compound 0.0316 µM, first compound 0.1 µM
[3] = second compound 0.0316 µM, first compound 0.316 µM
[4] = second compound 0.0316 µM, first compound 1 µM
[5] = second compound 0.0316 µM, first compound 3.16 µM
[6] = second compound 0.0316 µM, first compound 10 µM
[7] = second compound 0.1 µM, first compound 0.0316 µM
[8] = second compound 0.1 µM, first compound 0.1 µM
[9] = second compound 0.1 µM, first compound 0.316 µM
[10] = second compound 0.1 µM, first compound 1 µM
[11] = second compound 0.1 µM, first compound 3.16 µM
[12] = second compound 0.1 µM, first compound 10 µM
[13] = second compound 0.316 µM, first compound 0.0316 µM
[14] = second compound 0.316 µM, first compound 0.1 µM
[15] = second compound 0.316 µM, first compound 0.316 µM
[16] = second compound 0.316 µM, first compound 1 µM
[17] = second compound 0.316 µM, first compound 3.16 µM
[18] = second compound 0.316 µM, first compound 10 µM
[19] = second compound 1 µM, first compound 0.0316 µM
[20] = second compound 1 µM, first compound 0.1 µM
[21] = second compound 1 µM, first compound 0.316 µM
[22] = second compound 1 µM, first compound 1 µM
[23] = second compound 1 µM, first compound 3.16 µM
[24] = second compound 1 µM, first compound 10 µM
[25] = second compound 3.16 µM, first compound 0.0316 µM
[26] = second compound 3.16 µM, first compound 0.1 µM
[27] = second compound 3.16 µM, first compound 0.316 µM
[28] = second compound 3.16 µM, first compound 1 µM
[29] = second compound 3.16 µM, first compound 3.16 µM
[30] = second compound 3.16 µM, first compound 10 µM
[31] = second compound 10 µM, first compound 0.0316 µM
[32] = second compound 10 µM, first compound 0.1 µM
[33] = second compound 10 µM, first compound 0.316 µM
[34] = second compound 10 µM, first compound 1 µM
[35] = second compound 10 µM, first compound 3.16 µM
[36] = second compound 10 µM, first compound 10 µM
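Note: spheroids exposed to the agents for one week before reading.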
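Throughout, for viability, T/C: percent of vehicle DMSO control viability so 100% = untreated growth.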

Compound: CC(=O)O[C@H]1C(=O)[C@@]2(C)[C@H]([C@H](OC(=O)c3ccccc3)[C@]3(O)C[C@H](OC(=O)[C@H](O)[C@@H](NC(=O)c4ccccc4)c4ccccc4)C(C)=C1C3(C)C)[C@]1(OC(C)=O)CO[C@@H]1C[C@@H]2O + Cc1cnc(CNC(=O)c2c(=O)c3ccc(N4CCCN(C)CC4)nc3n3c2sc2ccccc23)cn1
- IC50 (second compound 0.0316 µM): < 31.6 nM
- IC50 (second compound 0.1 µM): < 31.6 nM
- IC50 (second compound 0.316 µM): 533 nM
- IC50 (second compound 1 µM): 7490 nM
- IC50 (second compound 3.16 µM): < 31.6 nM
- IC50 (second compound 10 µM): < 31.6 nM
- viability, T/C [1]: 50.2%
- viability, T/C [2]: 37%
- viability, T/C [3]: 45.2%
- viability, T/C [4]: 41.3%
- viability, T/C [5]: 43.7%
- viability, T/C [6]: 43.2%
- viability, T/C [7]: 48.4%
- viability, T/C [8]: 54.9%
- viability, T/C [9]: 44.5%
- viability, T/C [10]: 49.9%
- viability, T/C [11]: 53.2%
- viability, T/C [12]: 51.7%
- viability, T/C [13]: 49%
- viability, T/C [14]: 67.9%
- viability, T/C [15]: 45.9%
- viability, T/C [16]: 39.1%
- viability, T/C [17]: 51.2%
- viability, T/C [18]: 49.6%
- viability, T/C [19]: 52.1%
- viability, T/C [20]: 59.9%
- viability, T/C [21]: 53.2%
- viability, T/C [22]: 50%
- viability, T/C [23]: 50%
- viability, T/C [24]: 50.9%
- viability, T/C [25]: 46.9%
- viability, T/C [26]: 38.8%
- viability, T/C [27]: 43.2%
- viability, T/C [28]: 34.5%
- viability, T/C [29]: 40.4%
- viability, T/C [30]: 44.5%
- viability, T/C [31]: 0.38%
- viability, T/C [32]: 19.7%
- viability, T/C [33]: 0.53%
- viability, T/C [34]: 0.57%
- viability, T/C [35]: 10.9%
- viability, T/C [36]: 12.1%

Compound: O=C(NO)c1cnc(N2CCN(S(=O)(=O)c3ccc4ccccc4c3)CC2)nc1 + Cc1cnc(CNC(=O)c2c(=O)c3ccc(N4CCCN(C)CC4)nc3n3c2sc2ccccc23)cn1
- IC50 (second compound 0.0316 µM): 103 nM
- IC50 (second compound 0.1 µM): 114 nM
- IC50 (second compound 0.316 µM): 66.6 nM
- IC50 (second compound 1 µM): 34.5 nM
- IC50 (second compound 3.16 µM): < 31.6 nM
- IC50 (second compound 10 µM): < 31.6 nM
- viability, T/C [1]: 92.8%
- viability, T/C [2]: 49.6%
- viability, T/C [3]: 22.8%
- viability, T/C [4]: 0.83%
- viability, T/C [5]: 0.39%
- viability, T/C [6]: 0.19%
- viability, T/C [7]: 80.1%
- viability, T/C [8]: 52%
- viability, T/C [9]: 25.3%
- viability, T/C [10]: 1.24%
- viability, T/C [11]: 0.16%
- viability, T/C [12]: 0.23%
- viability, T/C [13]: 69.4%
- viability, T/C [14]: 38.7%
- viability, T/C [15]: 16.6%
- viability, T/C [16]: 0.27%
- viability, T/C [17]: 0.14%
- viability, T/C [18]: 0.14%
- viability, T/C [19]: 51.6%
- viability, T/C [20]: 30.6%
- viability, T/C [21]: 0.25%
- viability, T/C [22]: 0.31%
- viability, T/C [23]: 0.15%
- viability, T/C [24]: 0.19%
- viability, T/C [25]: 38.1%
- viability, T/C [26]: 0.34%
- viability, T/C [27]: 0.31%
- viability, T/C [28]: 0.23%
- viability, T/C [29]: 0.19%
- viability, T/C [30]: 0.21%
- viability, T/C [31]: 0.42%
- viability, T/C [32]: 0.28%
- viability, T/C [33]: 0.56%
- viability, T/C [34]: 0.4%
- viability, T/C [35]: 0.29%
- viability, T/C [36]: 0.25%

Compound: C=CCn1c(=O)c2cnc(Nc3ccc(N4CCN(C)CC4)cc3)nc2n1-c1cccc(C(C)(C)O)n1
- viability, T/C (compound 0.0316 µM): 105% and 84.5% and 97.9%
- viability, T/C (compound 0.1 µM): 81.6% and 94.9% and 101%
- viability, T/C (compound 0.316 µM): 83% and 52.6% and 63%
- viability, T/C (compound 1 µM): 46.9% and 51.9% and 42%
- viability, T/C (compound 3.16 µM): 50.9% and 46.4% and 62.5%
- viability, T/C (compound 10 µM): 45.4% and 49.7% and 66.2%
